Data reported in ChEMBL document CHEMBL1139046, “3,4-Dihydro-2H-benzoxazinones as dual-acting 5-HT1A receptor antagonists and serotonin reuptake inhibitors” (Bioorg Med Chem Lett, 2007).
The source made the active and inactive calls. The rule behind the calls is not given here.

Columns and labels:
[1] = molecular target: T1, 5-hydroxytryptamine receptor 1A (Homo sapiens, UniProt P08908); assay: Displacement of [3H]WAY-100635 from human cloned 5HT1A receptor expressed in CHO cells; type: cell-based
T1 sequence (P08908 whole entry): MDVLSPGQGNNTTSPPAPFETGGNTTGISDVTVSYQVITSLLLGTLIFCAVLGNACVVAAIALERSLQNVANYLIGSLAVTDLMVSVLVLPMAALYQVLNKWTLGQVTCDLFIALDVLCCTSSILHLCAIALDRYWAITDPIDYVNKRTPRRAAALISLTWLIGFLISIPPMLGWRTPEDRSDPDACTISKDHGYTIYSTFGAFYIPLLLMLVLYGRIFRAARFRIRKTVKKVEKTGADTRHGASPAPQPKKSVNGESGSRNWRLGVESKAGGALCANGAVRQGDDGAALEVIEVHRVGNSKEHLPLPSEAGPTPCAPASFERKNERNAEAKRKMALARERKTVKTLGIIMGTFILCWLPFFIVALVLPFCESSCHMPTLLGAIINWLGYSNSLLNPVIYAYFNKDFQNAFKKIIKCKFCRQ

[2] = molecular target: Sodium-dependent serotonin transporter (Rattus norvegicus, UniProt P31652); assay: Inhibition of [3H]5-HT uptake at SERT in rat cortical synaptosomes; type: subcellular, Brain
[3] = molecular target: 5-hydroxytryptamine receptor 1B (Homo sapiens, UniProt P28222); assay: Displacement of [3H]5-HT from human cloned 5HT1B receptor expressed in CHO cells; type: cell-based
[4] = molecular target: 5-hydroxytryptamine receptor 1D (Homo sapiens, UniProt P28221); assay: Displacement of [3H]5-HT from human cloned 5HT1D receptor expressed in CHO cells; type: cell-based
Rattus norvegicus [5] = species: Rattus norvegicus; assay: Ex vivo displacement of [3H]8-OH DPAT from 5HT1A receptor in rat cortex; type: functional, organism-based
[6] = molecular target: T2, 5-hydroxytryptamine receptor 1A (Homo sapiens) (UniProt P08908); assay: Intrinsic activity at 5HT1A receptor expressed in HEK293 cells relative to 5HT by [35S]GTPgammaS binding assay; type: functional, cell-based
T2 sequence (whole entry): T1 sequence (P08908 whole entry)

[7] = Oral bioavailability in rat at 3 mg/kg, po; type: ADME, organism-based; conditions: in vivo
Rattus norvegicus [8] = assay: Effect on locomotor activity in rat up to 10 mg/kg
[9] = Selectivity for rat SERT over human 5HT1D
[10] = molecular target: 5-hydroxytryptamine receptor 2B (Homo sapiens, UniProt P41595); assay: Displacement of [3H]5-HT from human cloned 5HT2B receptor expressed in HEK293 cells; type: cell-based
Homo sapiens [11] = species: Homo sapiens; assay: Selectivity for human 5TH1A over human 5HT1B
Homo sapiens [12] = species: Homo sapiens; assay: Selectivity for human 5TH1A over human 5HT1D
[13] = molecular target: Alpha-1B adrenergic receptor (Homo sapiens) (UniProt P35368); assay: Binding affinity at adrenergic alpha 1b receptor
[14] = molecular target: 5-hydroxytryptamine receptor 2A (Homo sapiens, UniProt P28223); assay: Displacement of [3H]ketanserin from human cloned 5HT2A receptor expressed in HEK293 cells; type: cell-based
[15] = Blood clearance in rat at 3 mg/kg, po; type: ADME, organism-based; set-up: dose 3 mg/kg, route oral; conditions: whole blood
D(2) dopamine receptor = D(2) dopamine receptor (Homo sapiens, UniProt P14416); assay: Displacement of [125I]iodosulpiride from human cloned D2 receptor expressed in CHO cells; type: cell-based
[16] = Selectivity for rat SERT over human 5HT1B
Rattus norvegicus [17] = assay: Ex vivo displacement of [3H]8-OH DPAT from 5HT1A receptor in rat cortex at 1 mg/kg, po; type: functional
[18] = Agonist activity at guinea pig 5HT1A receptor; type: functional, Cavia porcellus
[19] = molecular target: T3, 5-hydroxytryptamine receptor 1A (Rattus norvegicus, UniProt P19327); assay: Agonist activity at rat 5HT1A receptor; type: functional
T3 sequence (P19327 whole entry): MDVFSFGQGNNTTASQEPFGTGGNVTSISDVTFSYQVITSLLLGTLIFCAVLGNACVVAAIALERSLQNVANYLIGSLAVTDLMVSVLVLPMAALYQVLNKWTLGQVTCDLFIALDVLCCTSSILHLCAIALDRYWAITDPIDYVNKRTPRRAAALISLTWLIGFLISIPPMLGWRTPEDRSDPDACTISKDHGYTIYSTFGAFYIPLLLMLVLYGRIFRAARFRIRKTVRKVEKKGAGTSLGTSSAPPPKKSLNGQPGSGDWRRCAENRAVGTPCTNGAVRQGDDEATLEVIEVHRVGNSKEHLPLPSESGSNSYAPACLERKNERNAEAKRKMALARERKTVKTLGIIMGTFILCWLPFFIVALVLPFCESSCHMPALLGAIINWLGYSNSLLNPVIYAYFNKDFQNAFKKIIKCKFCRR

Rattus norvegicus [20] = assay: Ex vivo displacement of [3H]WAY-100635 from 5HT1A receptor in rat cortex at 1 mg/kg, po; type: functional
[21] = molecular target: 5-hydroxytryptamine receptor 6 (Homo sapiens, UniProt P50406); assay: Displacement of [3H]LSD from human cloned 5HT6 receptor expressed in HeLa cells; type: cell-based
[22] = molecular target: T4, 5-hydroxytryptamine receptor 2C (Homo sapiens, UniProt P28335); assay: Displacement of [3H]mesulergine from human cloned 5HT2C receptor expressed in HEK293 cells; type: cell-based
T4 sequence (P28335 whole entry): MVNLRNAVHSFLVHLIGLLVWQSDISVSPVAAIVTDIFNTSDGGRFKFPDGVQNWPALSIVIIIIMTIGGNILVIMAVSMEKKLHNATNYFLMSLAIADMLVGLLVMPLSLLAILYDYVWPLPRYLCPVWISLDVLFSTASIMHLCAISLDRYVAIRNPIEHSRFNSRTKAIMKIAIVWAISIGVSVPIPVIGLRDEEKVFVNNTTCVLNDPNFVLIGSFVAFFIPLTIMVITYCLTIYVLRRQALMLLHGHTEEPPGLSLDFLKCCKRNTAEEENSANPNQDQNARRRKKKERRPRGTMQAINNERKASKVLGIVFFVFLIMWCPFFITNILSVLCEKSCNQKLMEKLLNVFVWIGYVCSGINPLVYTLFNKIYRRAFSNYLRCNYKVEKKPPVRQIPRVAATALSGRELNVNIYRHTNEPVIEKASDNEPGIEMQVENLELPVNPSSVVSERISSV

Rattus norvegicus [23] = species: Rattus norvegicus; assay: Ex vivo inhibition of [3H]5-HT uptake at SERT in rat cortical synaptosomes; type: functional; conditions: Brain
Rattus norvegicus [24] = assay: Attenuation of 8-OH DPAT induced locomotor activity in po dosed rat; type: functional
D(3) dopamine receptor = D(3) dopamine receptor (Homo sapiens, UniProt P35462); assay: Displacement of [125I]iodosulpiride from human cloned D3 receptor expressed in CHO cells; type: cell-based
[25] = molecular target: 5-hydroxytryptamine receptor 7 (Homo sapiens, UniProt P34969); assay: Displacement of [3H]5CT from human cloned 5HT7a receptor expressed in HEK293 cells; type: cell-based
Rattus norvegicus [26] = species: Rattus norvegicus; assay: Ex vivo displacement of [3H]WAY-100635 from 5HT1A receptor in rat cortex; type: functional, organism-based
[27] = Agonist activity at marmoset 5HT1A receptor; type: functional, Callithrix jacchus
[28] = Ratio of drug level in brain to blood in rat

Chain of 5-hydroxytryptamine receptor 1D (P28221 whole entry): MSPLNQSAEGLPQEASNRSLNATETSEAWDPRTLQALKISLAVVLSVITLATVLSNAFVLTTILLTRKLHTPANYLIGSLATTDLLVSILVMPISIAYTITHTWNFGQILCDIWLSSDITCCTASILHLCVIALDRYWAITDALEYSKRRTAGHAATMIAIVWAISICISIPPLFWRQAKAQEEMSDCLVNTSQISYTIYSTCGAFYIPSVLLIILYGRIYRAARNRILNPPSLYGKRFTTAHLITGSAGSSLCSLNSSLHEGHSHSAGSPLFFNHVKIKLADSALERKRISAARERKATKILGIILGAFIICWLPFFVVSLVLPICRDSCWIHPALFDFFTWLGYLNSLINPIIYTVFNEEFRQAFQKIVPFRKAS
Chain of D(2) dopamine receptor (P14416 whole entry): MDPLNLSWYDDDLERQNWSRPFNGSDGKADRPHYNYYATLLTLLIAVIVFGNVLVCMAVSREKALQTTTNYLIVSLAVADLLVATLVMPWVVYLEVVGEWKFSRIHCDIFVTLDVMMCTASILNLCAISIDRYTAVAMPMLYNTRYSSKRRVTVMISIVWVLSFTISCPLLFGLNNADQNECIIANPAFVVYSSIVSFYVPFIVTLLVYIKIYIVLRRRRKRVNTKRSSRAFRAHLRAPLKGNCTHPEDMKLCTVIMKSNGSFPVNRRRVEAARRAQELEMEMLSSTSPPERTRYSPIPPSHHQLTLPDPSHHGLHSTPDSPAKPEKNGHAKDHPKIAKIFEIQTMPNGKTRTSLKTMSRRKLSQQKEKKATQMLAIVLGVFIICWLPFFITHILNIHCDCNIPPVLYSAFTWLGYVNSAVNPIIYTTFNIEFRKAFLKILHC
Chain of 5-hydroxytryptamine receptor 1B (P28222 whole entry): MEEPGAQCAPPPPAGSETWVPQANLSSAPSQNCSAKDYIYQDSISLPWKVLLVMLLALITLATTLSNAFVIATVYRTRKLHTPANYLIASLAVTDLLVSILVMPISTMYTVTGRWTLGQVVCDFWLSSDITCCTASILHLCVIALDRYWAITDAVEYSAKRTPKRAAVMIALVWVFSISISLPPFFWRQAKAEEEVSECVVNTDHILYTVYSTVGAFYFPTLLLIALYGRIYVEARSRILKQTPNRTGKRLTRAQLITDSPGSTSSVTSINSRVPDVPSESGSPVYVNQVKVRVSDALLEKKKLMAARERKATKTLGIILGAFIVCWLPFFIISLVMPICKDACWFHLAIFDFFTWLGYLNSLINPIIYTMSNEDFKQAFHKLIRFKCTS
Chain of D(3) dopamine receptor (P35462 whole entry): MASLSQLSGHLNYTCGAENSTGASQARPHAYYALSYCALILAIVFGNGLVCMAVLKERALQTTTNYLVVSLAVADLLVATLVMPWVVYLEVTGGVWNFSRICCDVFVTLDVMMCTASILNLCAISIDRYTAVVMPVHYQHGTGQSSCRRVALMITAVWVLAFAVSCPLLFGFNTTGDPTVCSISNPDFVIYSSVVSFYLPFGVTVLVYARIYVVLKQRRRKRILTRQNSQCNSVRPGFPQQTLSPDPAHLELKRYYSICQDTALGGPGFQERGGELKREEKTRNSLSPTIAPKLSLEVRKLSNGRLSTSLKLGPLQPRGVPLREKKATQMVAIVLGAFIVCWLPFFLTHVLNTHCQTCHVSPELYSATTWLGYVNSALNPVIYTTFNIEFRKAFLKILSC
Chain of 5-hydroxytryptamine receptor 2A (P28223 whole entry): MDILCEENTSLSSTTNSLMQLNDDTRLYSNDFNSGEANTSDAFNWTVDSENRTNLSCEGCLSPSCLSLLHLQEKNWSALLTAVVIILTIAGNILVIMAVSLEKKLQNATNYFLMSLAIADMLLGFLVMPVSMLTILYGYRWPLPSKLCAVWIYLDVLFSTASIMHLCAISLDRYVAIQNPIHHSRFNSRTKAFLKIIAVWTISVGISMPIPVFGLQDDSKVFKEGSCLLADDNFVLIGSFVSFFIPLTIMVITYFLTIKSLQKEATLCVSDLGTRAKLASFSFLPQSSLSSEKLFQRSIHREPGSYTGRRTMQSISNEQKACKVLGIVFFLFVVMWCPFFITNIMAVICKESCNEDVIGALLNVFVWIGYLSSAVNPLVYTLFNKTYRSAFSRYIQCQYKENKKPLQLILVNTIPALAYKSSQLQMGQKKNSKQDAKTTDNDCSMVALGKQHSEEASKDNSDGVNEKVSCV
Chain of 5-hydroxytryptamine receptor 7 (P34969 whole entry): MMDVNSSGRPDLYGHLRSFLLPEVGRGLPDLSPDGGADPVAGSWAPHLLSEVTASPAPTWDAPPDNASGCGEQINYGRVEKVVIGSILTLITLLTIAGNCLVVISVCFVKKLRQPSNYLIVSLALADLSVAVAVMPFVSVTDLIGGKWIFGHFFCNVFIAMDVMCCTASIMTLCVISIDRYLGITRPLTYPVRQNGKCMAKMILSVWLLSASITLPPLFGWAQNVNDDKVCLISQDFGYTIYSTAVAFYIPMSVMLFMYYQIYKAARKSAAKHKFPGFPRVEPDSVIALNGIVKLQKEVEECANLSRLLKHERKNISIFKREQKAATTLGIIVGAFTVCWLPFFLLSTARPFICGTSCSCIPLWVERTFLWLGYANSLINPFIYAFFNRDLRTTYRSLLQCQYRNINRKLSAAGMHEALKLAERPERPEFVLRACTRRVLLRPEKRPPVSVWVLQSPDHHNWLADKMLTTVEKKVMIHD
Chain of 5-hydroxytryptamine receptor 2B (P41595 whole entry): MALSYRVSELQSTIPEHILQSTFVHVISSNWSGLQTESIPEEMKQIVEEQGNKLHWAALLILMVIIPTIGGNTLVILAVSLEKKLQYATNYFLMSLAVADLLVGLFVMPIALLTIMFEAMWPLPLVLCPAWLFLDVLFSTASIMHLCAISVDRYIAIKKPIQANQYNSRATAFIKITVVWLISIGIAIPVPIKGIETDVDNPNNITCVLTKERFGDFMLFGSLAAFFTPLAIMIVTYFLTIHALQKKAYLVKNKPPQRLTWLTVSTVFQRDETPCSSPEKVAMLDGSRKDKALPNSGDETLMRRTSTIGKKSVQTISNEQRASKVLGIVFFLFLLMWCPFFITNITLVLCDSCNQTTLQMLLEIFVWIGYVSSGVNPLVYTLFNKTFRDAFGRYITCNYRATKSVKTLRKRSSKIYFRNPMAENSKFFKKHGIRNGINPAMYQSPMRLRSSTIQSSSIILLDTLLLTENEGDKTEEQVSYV
Chain of Alpha-1B adrenergic receptor (Homo sapiens) (P35368 whole entry, looked up): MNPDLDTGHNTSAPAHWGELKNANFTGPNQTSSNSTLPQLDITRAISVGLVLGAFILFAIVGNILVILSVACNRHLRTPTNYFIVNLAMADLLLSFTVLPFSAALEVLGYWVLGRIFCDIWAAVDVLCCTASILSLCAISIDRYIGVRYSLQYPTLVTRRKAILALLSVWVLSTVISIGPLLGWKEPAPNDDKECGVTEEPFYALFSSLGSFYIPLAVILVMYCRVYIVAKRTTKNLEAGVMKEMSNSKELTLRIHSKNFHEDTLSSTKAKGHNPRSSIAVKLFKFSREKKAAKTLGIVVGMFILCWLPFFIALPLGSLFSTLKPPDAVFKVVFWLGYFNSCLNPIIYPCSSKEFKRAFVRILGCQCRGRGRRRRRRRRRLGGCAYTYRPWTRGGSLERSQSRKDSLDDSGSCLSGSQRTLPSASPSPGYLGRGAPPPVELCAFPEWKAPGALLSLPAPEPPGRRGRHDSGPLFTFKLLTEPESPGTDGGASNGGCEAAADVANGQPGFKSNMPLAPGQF
Chain of Sodium-dependent serotonin transporter (P31652 whole entry): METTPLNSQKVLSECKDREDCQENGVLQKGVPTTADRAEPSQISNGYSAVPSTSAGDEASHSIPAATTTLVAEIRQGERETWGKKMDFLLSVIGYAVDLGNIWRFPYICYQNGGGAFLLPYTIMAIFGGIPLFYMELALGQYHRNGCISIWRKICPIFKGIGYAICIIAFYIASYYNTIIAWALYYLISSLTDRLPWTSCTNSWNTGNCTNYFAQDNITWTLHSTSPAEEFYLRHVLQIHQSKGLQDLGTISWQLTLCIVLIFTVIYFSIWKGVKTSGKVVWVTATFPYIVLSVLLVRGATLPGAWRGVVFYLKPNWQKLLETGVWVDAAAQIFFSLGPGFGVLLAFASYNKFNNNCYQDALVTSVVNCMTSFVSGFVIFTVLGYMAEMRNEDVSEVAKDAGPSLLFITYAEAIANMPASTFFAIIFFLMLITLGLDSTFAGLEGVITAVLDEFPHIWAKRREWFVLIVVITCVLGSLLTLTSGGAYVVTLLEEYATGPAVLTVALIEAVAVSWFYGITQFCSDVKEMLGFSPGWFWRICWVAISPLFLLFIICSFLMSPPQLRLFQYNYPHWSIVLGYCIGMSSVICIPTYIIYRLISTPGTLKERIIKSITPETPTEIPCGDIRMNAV
Chain of 5-hydroxytryptamine receptor 6 (P50406 whole entry): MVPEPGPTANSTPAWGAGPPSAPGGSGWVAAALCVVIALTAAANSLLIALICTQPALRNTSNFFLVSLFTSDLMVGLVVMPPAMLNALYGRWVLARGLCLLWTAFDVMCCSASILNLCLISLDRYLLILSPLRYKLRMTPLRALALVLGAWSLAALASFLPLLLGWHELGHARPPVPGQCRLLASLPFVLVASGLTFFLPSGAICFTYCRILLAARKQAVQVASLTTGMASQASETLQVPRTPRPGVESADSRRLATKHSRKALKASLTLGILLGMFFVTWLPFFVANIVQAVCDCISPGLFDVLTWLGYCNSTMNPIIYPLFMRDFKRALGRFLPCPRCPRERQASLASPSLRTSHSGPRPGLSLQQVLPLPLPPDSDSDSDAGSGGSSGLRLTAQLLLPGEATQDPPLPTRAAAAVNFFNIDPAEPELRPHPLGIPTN

Row | Ki [1] | Ki [2] | Ki [3] | Ki [4] | bioavailability [7] | Ki [13] | Ki [14] | CL/F [15] | Ki (D(2) dopamine receptor) | Ki [21] | Ki [22] | Ki (D(3) dopamine receptor) | Ki [25] | Kp [28] | Ki [10] | SMILES | also measured
1 | 39.8 nM | 12.6 nM | 158 nM | 63.1 nM |  |  |  |  |  |  |  |  |  |  |  | Cc1ccc2c(OCCN3CCC(Cc4ccc5c(c4)NC(=O)CO5)CC3)ccc(Cl)c2n1 | 
2 | 2.51 nM | 15.8 nM | 2000 nM | 794 nM | 60% | 2510 nM | > 10000 nM | 18 mL/min/kg | 3160 nM | 7940 nM | > 5010 nM | 2000 nM | 39.8 nM |  |  | Cc1ccc2c(OCCN3CCC(Cc4cc5c(cc4F)OCC(=O)N5)CC3)cc(Cl)cc2n1 | Activity (Rattus norvegicus [5]): Dose-dependent effect; Intrinsic activity [6]: 0; Activity (Rattus norvegicus [8]): inactive; Selectivity ratio [9]: 100; Log Ki ([10]; hek293): > -6; Selectivity ratio (Homo sapiens [11]): 100; Selectivity ratio (Homo sapiens [12]): 100; Selectivity ratio [16]: 100; inhibition in vivo at 1 mg/kg (Rattus norvegicus [17]): 50%; Log Ki [18]: > -9; Ki [19]: > 1 nM; inhibition in vivo at 1 mg/kg (Rattus norvegicus [20]): 50%; ED50 (Rattus norvegicus [23]): 3 mg/kg; ED50 (Rattus norvegicus [24]): 3 mg/kg; Activity (Rattus norvegicus [26]): Dose-dependent effect; Log Ki [27]: > -9
3 | 50.1 nM | 10 nM | 31.6 nM | 2.51 nM |  |  |  |  |  |  |  |  |  |  |  | Cc1ccc2c(OCCN3CCC(Cc4ccc5c(c4)NC(=O)CO5)CC3)c(F)ccc2n1 | 
4 | 0.794 nM | 15.8 nM | > 1000 nM | 398 nM | 41% |  |  | 25 mL/min/kg |  |  |  |  |  |  |  | Cc1ccc2c(OCCN3CCC(Cc4ccc5c(c4)NC(=O)CO5)CC3)cc(F)cc2n1 | 
5 | 2.51 nM | 15.8 nM | 2.51 nM | 0.794 nM |  |  |  | 41 mL/min/kg |  |  |  |  |  | 4 |  | Cc1ccc2c(OCCN3CCC(Cc4ccc5c(c4F)NC(=O)CO5)CC3)cccc2n1 | 
6 | 0.501 nM | 7.94 nM | 20 nM | 3.16 nM | 33% |  |  | 36 mL/min/kg |  |  |  |  |  |  |  | Cc1ccc2c(OCCN3CCC(Cc4cc5c(cc4F)OCC(=O)N5)CC3)cccc2n1 | 
7 | 0.398 nM | 7.94 nM | 1000 nM | 251 nM | 54% | 794 nM | 2000 nM | 19 mL/min/kg | 2000 nM | > 1000 nM | 1260 nM | 501 nM | 39.8 nM | 1.2 | 1000 nM | Cc1ccc2c(OCCN3CCC(Cc4cc5c(cc4F)OCC(=O)N5)CC3)cc(F)cc2n1 | Activity (Rattus norvegicus [5]): Dose-dependent effect; Intrinsic activity [6]: 0; Selectivity ratio [9]: 100; Selectivity ratio (Homo sapiens [11]): 100; Selectivity ratio (Homo sapiens [12]): 100; Selectivity ratio [16]: 100; inhibition in vivo at 1 mg/kg (Rattus norvegicus [17]): 50%; Log Ki [18]: > -9; Ki [19]: > 1 nM; inhibition in vivo at 1 mg/kg (Rattus norvegicus [20]): 50%; ED50 (Rattus norvegicus [23]): 3 mg/kg; ED50 (Rattus norvegicus [24]): < 1 mg/kg; Activity (Rattus norvegicus [26]): Dose-dependent effect; Log Ki [27]: > -9
8 |  |  |  |  | 45% | 2510 nM | 3160 nM | 50 mL/min/kg | 1260 nM | > 10000 nM | > 7940 nM | 631 nM | 200 nM |  | 1580 nM | Cc1ccc2c(OCCN3CCC(Cc4ccc5c(c4)NC(=O)CO5)CC3)cccc2n1 | 
9 | 5.01 nM | 6.31 nM | 0.794 nM | 0.398 nM |  |  |  | 22 mL/min/kg |  |  |  |  |  |  |  | Cc1ccc2c(OCCN3CCC(Cc4cc(F)c5c(c4)NC(=O)CO5)CC3)cccc2n1 | 
10 | 20 nM | 7.94 nM | 794 nM | 79.4 nM |  |  |  |  |  |  |  |  |  |  |  | Cc1ccc2c(OCCN3CCC(Cc4ccc5c(c4)NC(=O)CO5)CC3)ccc(F)c2n1 | 
11 | 10 nM | 63.1 nM | 631 nM | 631 nM | 51% | 1580 nM | 3160 nM | 16 mL/min/kg | 2510 nM | > 10000 nM | 2510 nM | 1260 nM | 79.4 nM |  | 3160 nM | Cc1ccc2c(OCCN3CCC(Cc4cc(F)c5c(c4)NC(=O)CO5)CC3)cc(Cl)cc2n1 | 
12 | 3.98 nM | 63.1 nM | 316 nM | 79.4 nM | 88% |  | > 10000 nM | 25 mL/min/kg | > 10000 nM | > 6310 nM | > 10000 nM | 3980 nM | 79.4 nM | 0.4 | > 7940 nM | Cc1ccc2c(OCCN3CCC(Cc4cc(F)c5c(c4)NC(=O)CO5)CC3)cc(F)cc2n1 | Log Ki [13]: > -6
13 | 2.51 nM | 63.1 nM | 1580 nM | 631 nM | 43% | 398 nM | 3980 nM | 28 mL/min/kg | 1260 nM | > 10000 nM | 3980 nM | 1000 nM | 126 nM |  | 1580 nM | Cc1ccc2c(OCCN3CCC(Cc4ccc5c(c4F)NC(=O)CO5)CC3)cc(Cl)cc2n1 | 
14 | 1.58 nM | 25.1 nM | 398 nM | 100 nM | 39% | 1260 nM | 2000 nM | 27 mL/min/kg | 1260 nM | > 10000 nM | 2510 nM | 794 nM | 126 nM | 6.4 |  | Cc1ccc2c(OCCN3CCC(Cc4ccc5c(c4F)NC(=O)CO5)CC3)cc(F)cc2n1 | 
15 | 20 nM | 100 nM | 1000 nM | 251 nM |  |  |  |  |  |  |  |  |  |  |  | Cc1ccc2c(OCCN3CCC(Cc4ccc5c(c4)NC(=O)CO5)CC3)cc(C#N)cc2n1 | 
16 | 1.58 nM | 10 nM | 1260 nM | 794 nM | 56% |  |  | 25 mL/min/kg |  |  |  |  |  | 0.2 |  | Cc1ccc2c(OCCN3CCC(Cc4ccc5c(c4)NC(=O)CO5)CC3)cc(Cl)cc2n1 | 
